Source: patent US12365687B2 (Hoffmann-La Roche Inc., priority 2021, dated 2025)

What was measured:
[1] = biological target: human GABAA α2β2γ1 receptor (Homo sapiens (Human), UniProt P47869+Q8N1C3); experiment: Radioligand binding assay for γ1-containing GABAA subtypes, [3H]RO7239181 competition (α2β2γ1)
[2] = biological target: α2β2γ1 GABAA receptor subtype (Homo sapiens (Human), UniProt P47869+Q8N1C3); experiment: Two-electrode voltage clamp electrophysiology in Xenopus oocytes expressing GABAA receptors (modulation of GABA EC20 current); format: cell-based; settings: for Efficacy (GABA)%: % modulation of GABA EC20 = 100*(Fold increase-1), α2β2γ1 oocytes, compound at approx. 30-fold Ki; for Fold increase h-GABA-A α2β2γ1 oocyte @ 30-fold Ki: Xenopus oocytes expressing α2β2γ1, compound at approx. 30-fold its Ki α2β2γ1, GABA EC20 current
Summary of the method: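 Each concentration was tested on ≥3 oocytes held at −80 mV at room temperature, recorded 3-5 days post-injection. A control and a test response to EC20 GABA (1.5 min each) were superimposed and their point-by-point ratio taken. Peak ratio reported as % modulation of GABA EC20 = 100×(fold increase−1).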

[3] = biological target: human GABAA α5β2γ1 receptor (Homo sapiens (Human), UniProt P31644+Q8N1C3); experiment: Radioligand binding assay for γ1-containing GABAA subtypes, [3H]RO7239181 competition (α5β2γ1)
[4] = biological target: human GABAA α1β3γ2 receptor (Homo sapiens (Human), UniProt P14867+P18507); experiment: Radioligand binding assay for γ2-containing GABAA subtypes, [3H]Flumazenil competition (α1β3γ2); settings: for γ2/γ1 Selectivity Ratio: Ki α1β3γ2 (nM)/Ki α2β2γ1 (nM); for LogSel: Log[Ki α1β3γ2 (nM)/Ki α2β2γ1 (nM)]
[5] = Ki h-GABAA α2β2γ1, [3H]RO7239181 competition binding, human GABAA α2β2γ1
[6] = Ki h-GABAA α2β2γ1, displacement of [3H]RO7239181, membranes of HEK293F cells expressing human receptors, means of two determinations

Compound | Ki [1, 5] | Ki [1, 6] | Efficacy (GABA)% [2] | Fold increase h-GABA-A α2β2γ1 oocyte @ 30-fold Ki [2] | Ki [3] | Ki [4] | γ2/γ1 Selectivity Ratio [4] | LogSel [4]
Cc1nc2n(n1)-c1ccc(C(F)(F)F)c(Cl)c1C(c1c(F)cccc1F)=N[C@H]2C [Example 29, (4S)-7-chloro-6-(2,6-difluorophenyl)-2,4-dimethyl-8-(trifluoromethyl)-4H-[1,2,4]triazolo[1,5-a][1,4]benzodiazepine] | 10 nM | 10 nM | 80% | 1.80 | 0.69 nM | 1090 nM | 109.1 | 2.04
C[C@@H]1N=C(c2c(F)cccc2F)c2c(ccc(Cl)c2Cl)-n2nc(C(=O)NCCF)nc21 [Example 30, (4S)-7,8-dichloro-6-(2,6-difluorophenyl)-N-(2-fluoroethyl)-4-methyl-4H-[1,2,4]triazolo[1,5-a][1,4]benzodiazepine-2-carboxamide] | 7.2 nM | 7.21 nM | 78% | 1.78 | 1.39 nM | 660 nM | 91.5 | 1.96
C[C@@H]1N=C(c2c(F)cccc2F)c2c(ccc(Cl)c2Cl)-n2nc(C(=O)N3CC(OC(F)F)C3)nc21 [Example 31, [(4S)-7,8-dichloro-6-(2,6-difluorophenyl)-4-methyl-4H-[1,2,4]triazolo[1,5-a][1,4]benzodiazepin-2-yl]-[3-(difluoromethoxy)azetidin-1-yl]methanone] | 17 nM | 17 nM | 66% | 1.66 | 1.33 nM | 565 nM | 33.2 | 1.52
Cc1nc2n(n1)-c1ccc(Cl)c(Cl)c1C(c1c(F)cccc1F)=NC2 [Example 32, 7,8-dichloro-6-(2,6-difluorophenyl)-2-methyl-4H-[1,2,4]triazolo[1,5-a][1,4]benzodiazepine] | 2.4 nM | 2.44 nM | 26% | 1.26 | 0.6 nM | 163 nM | 67.1 | 1.83
Fc1cccc(F)c1C1=NCc2nc(C(F)F)nn2-c2ccc(Cl)c(Cl)c21 [Example 33, 7,8-dichloro-2-(difluoromethyl)-6-(2,6-difluorophenyl)-4H-[1,2,4]triazolo[1,5-a][1,4]benzodiazepine] | 10.8 nM | 10.8 nM | 56% | 1.56 | 0.69 nM | 659 nM | 61.2 | 1.79
[2H]C([2H])([2H])NC(=O)c1nc2n(n1)-c1ccc(C(F)(F)F)c(Cl)c1C(c1c(F)cccc1F)=N[C@H]2C [Example 34, (4S)-7-chloro-6-(2,6-difluorophenyl)-4-methyl-N-(trideuteriomethyl)-8-(trifluoromethyl)-4H-[1,2,4]triazolo[1,5-a][1,4]benzodiazepine-2-carboxamide] | 14.3 nM | 14.3 nM | 71% | 1.71 | 2.11 nM | 2180 nM | 152.4 | 2.18
C[C@@H]1N=C(c2c(F)cccc2F)c2c(ccc(Cl)c2Cl)-n2nc(C(N)=O)nc21 [Example 35, (4S)-7,8-dichloro-6-(2,6-difluorophenyl)-4-methyl-4H-[1,2,4]triazolo[1,5-a][1,4]benzodiazepine-2-carboxamide] | 6.5 nM | 6.53 nM | 67% | 1.67 | 0.73 nM | 778 nM | 119.1 | 2.08
COC1CN(C(=O)c2nc3n(n2)-c2ccc(C(F)(F)F)c(Cl)c2C(c2c(F)cccc2F)=NC3)C1 [Example 37, [7-chloro-6-(2,6-difluorophenyl)-8-(trifluoromethyl)-4H-[1,2,4]triazolo[1,5-a][1,4]benzodiazepin-2-yl]-(3-methoxyazetidin-1-yl)methanone] | 4.5 nM | 4.49 nM | 47% | 1.47 | 1.8 nM | 772 nM | 171.8 | 2.24
COC1CN(C(=O)c2nc3n(n2)-c2ccc(Cl)c(Cl)c2C(c2ncccc2F)=N[C@H]3C)C1 [Example 38, [(4S)-7,8-dichloro-6-(3-fluoro-2-pyridyl)-4-methyl-4H-[1,2,4]triazolo[1,5-a][1,4]benzodiazepin-2-yl]-(3-methoxyazetidin-1-yl)methanone] | 28.2 nM | 28.2 nM | 116% | 2.16 | 4.46 nM | 2200 nM | 77.8 | 1.89
[2H]C([2H])([2H])OC1CN(C(=O)c2nc3n(n2)-c2ccc(Cl)c(Cl)c2C(c2ncccc2F)=N[C@H]3C)C1 [Example 39, [(4S)-7,8-dichloro-6-(3-fluoro-2-pyridyl)-4-methyl-4H-[1,2,4]triazolo[1,5-a][1,4]benzodiazepin-2-yl]-[3-(trideuteriomethoxy)azetidin-1-yl]methanone] | 17.7 nM | 17.7 nM | 89% | 1.89 | 6.85 nM | 4200 nM | 237.9 | 2.38
C[C@@H]1N=C(c2c(F)cccc2F)c2c(ccc(Cl)c2Cl)-n2nc(C(=O)N3CC(F)C3)nc21 [Example 40, [(4S)-7,8-dichloro-6-(2,6-difluorophenyl)-4-methyl-4H-[1,2,4]triazolo[1,5-a][1,4]benzodiazepin-2-yl]-(3-fluoroazetidin-1-yl)methanone] | 7.4 nM | 7.35 nM | 89% | 1.89 | 0.9 nM | 672 nM | 91.4 | 1.96
C[C@@H]1N=C(c2c(F)cccc2F)c2c(ccc(Cl)c2Cl)-n2nc(C(=O)N3CC(C#N)C3)nc21 [Example 41, 1-[(4S)-7,8-dichloro-6-(2,6-difluorophenyl)-4-methyl-4H-[1,2,4]triazolo[1,5-a][1,4]benzodiazepine-2-carbonyl]azetidine-3-carbonitrile] | 3.3 nM | 3.28 nM | 67% | 1.67 | 0.74 nM | 389 nM | 118.6 | 2.07
C[C@@H]1N=C(c2ncccc2F)c2c(ccc(Cl)c2Cl)-n2nc(C(=O)N3CCC3)nc21 [Example 42, azetidin-1-yl-[(4S)-7,8-dichloro-6-(3-fluoro-2-pyridyl)-4-methyl-4H-[1,2,4]triazolo[1,5-a][1,4]benzodiazepin-2-yl]methanone] | 50.1 nM | 50.1 nM | 114% | 2.14 | 4.24 nM | 2630 nM | 52.5 | 1.72
C[C@@H]1N=C(c2c(F)cccc2F)c2c(ccc(Cl)c2Cl)-n2nc(C(=O)N3CC[C@H](O)C3)nc21 [Example 43, [(4S)-7,8-dichloro-6-(2,6-difluorophenyl)-4-methyl-4H-[1,2,4]triazolo[1,5-a][1,4]benzodiazepin-2-yl]-[(3S)-3-hydroxypyrrolidin-1-yl]methanone] | 4.7 nM | 4.75 nM | 71% | 1.71 | 1.26 nM | 837 nM | 176.3 | 2.25
C[C@@H]1N=C(c2ncccc2F)c2c(ccc(Cl)c2Cl)-n2nc(C(=O)N3CC(O)C3)nc21 [Example 44, [(4S)-7,8-dichloro-6-(3-fluoro-2-pyridyl)-4-methyl-4H-[1,2,4]triazolo[1,5-a][1,4]benzodiazepin-2-yl]-(3-hydroxyazetidin-1-yl)methanone] | 25.9 nM | 25.9 nM | 133% | 2.33 | 9.52 nM | 6620 nM | 255.1 | 2.41
CO[C@H]1CCN(C(=O)c2nc3n(n2)-c2ccc(Cl)c(Cl)c2C(c2c(F)cccc2F)=N[C@H]3C)C1 [Example 45, [(4S)-7,8-dichloro-6-(2,6-difluorophenyl)-4-methyl-4H-[1,2,4]triazolo[1,5-a][1,4]benzodiazepin-2-yl]-[(3S)-3-methoxypyrrolidin-1-yl]methanone] | 5.4 nM | 5.39 nM | 41% | 1.41 | 2.2 nM | 1350 nM | 250.3 | 2.40
